Common to all, as to test: relative viability (nuclei count vs DMSO), 5 days (fraction); higher = more cells survive
Compound in the assay “Tanzisertib + Foretinib”: O[C@H]1CC[C@H](Nc2ncc3nc(Nc4c(F)cc(F)cc4F)n([C@H]4CCOC4)c3n2)CC1 [Tanzisertib] + COc1cc2c(Oc3ccc(NC(=O)C4(C(=O)Nc5ccc(F)cc5)CC4)cc3F)ccnc2cc1OCCCN1CCOCC1 [Foretinib] (partner 0.25 µM)
A digest of the protocol: (§1)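 Relative viability divides the nuclei count in treated wells by that in vehicle wells. Lung cancer cell lines were seeded in 1536-well plates, dosed by pin tool the next day, and fixed and stained after 5 days in one step with final 0.05% Triton X-100, 1% formaldehyde and 1 ug/ml Hoechst. Dosing was a single drug or a fixed anchor-drug dose plus five library-drug doses (not always all listed) in √10 steps, and values are medians of duplicate plates imaged at 4×.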

Compound in assay [1]: O[C@H]1CC[C@H](Nc2ncc3nc(Nc4c(F)cc(F)cc4F)n([C@H]4CCOC4)c3n2)CC1 [Tanzisertib] + CC(=O)c1c(C)c2cnc(Nc3ccc(N4CCNCC4)cn3)nc2n(C2CCCC2)c1=O [Palbociclib] (partner 0.5 µM)
A digest of the protocol: as §1

Compound in assay [2]: C[C@@H](N)c1ccc(C(=O)Nc2ccnc3[nH]ccc23)cc1 + COc1cccc2cc(-c3nc([C@H]4CC[C@H](C(=O)O)CC4)n4ncnc(N)c34)[nH]c12 [OSI-027] (partner 0.5 µM)
Summed up:
as §1

Compound in the assay “Tanzisertib + Pictilisib”: O[C@H]1CC[C@H](Nc2ncc3nc(Nc4c(F)cc(F)cc4F)n([C@H]4CCOC4)c3n2)CC1 [Tanzisertib] + CS(=O)(=O)N1CCN(Cc2cc3nc(-c4cccc5[nH]ncc45)nc(N4CCOCC4)c3s2)CC1 [Pictilisib] (partner 1 µM)
A digest of the protocol: as §1

For 5 cell lines, relative viability results are on record in the supplement of paper PMC10307832.

NCI-H2228: the relative viability with Tanzisertib + Foretinib (first compound 0.08 µM) was determined as 0.961; with Tanzisertib + Foretinib (first compound 0.253 µM), 0.869; with Tanzisertib + Foretinib (first compound 0.8 µM), 0.928; in the assay with Tanzisertib + Foretinib (first compound 2.53 µM) it was 0.733; with Tanzisertib + Foretinib (first compound 8 µM), 0.68; in assay [1] (first compound 0.08 µM), 1.12. Moreover, the relative viability in assay [1] (first compound 0.253 µM) was 0.818; in assay [1] (first compound 0.8 µM), 0.684; in assay [1] (first compound 2.53 µM), 0.741; in assay [1] (first compound 8 µM) it was 0.655; in assay [2] (first compound 0.04 µM), 0.581; in assay [2] (first compound 0.1265 µM), 0.618. The relative viability in assay [2] (first compound 0.4 µM) worked out at 0.65; in assay [2] (first compound 1.265 µM) it was 0.786; in assay [2] (first compound 4 µM), 0.543; with Tanzisertib + Pictilisib (first compound 0.08 µM), 0.499; with Tanzisertib + Pictilisib (first compound 0.253 µM) it was 0.444; in the assay with Tanzisertib + Pictilisib (first compound 0.8 µM) it was 0.32. In addition, the relative viability with Tanzisertib + Pictilisib (first compound 2.53 µM) came to 0.291; with Tanzisertib + Pictilisib (first compound 8 µM), 0.367.
As for NCI-H2347, the relative viability with Tanzisertib + Foretinib (first compound 0.08 µM) is 1.12; in the assay with Tanzisertib + Foretinib (first compound 0.253 µM), 0.792; in the assay with Tanzisertib + Foretinib (first compound 0.8 µM), 0.95; with Tanzisertib + Foretinib (first compound 2.53 µM) it was 1.25; in the assay with Tanzisertib + Foretinib (first compound 8 µM) it was 0.629; in assay [1] (first compound 0.08 µM), 0.466. In addition, the relative viability in assay [1] (first compound 0.253 µM) is 0.457; in assay [1] (first compound 0.8 µM), 0.452; in assay [1] (first compound 2.53 µM), 0.444; in assay [1] (first compound 8 µM), 0.435; in assay [2] (first compound 0.04 µM), 0.502; in assay [2] (first compound 0.1265 µM), 0.494. In addition, the relative viability in assay [2] (first compound 0.4 µM) was found to be 0.414; in assay [2] (first compound 4 µM), 0.631; with Tanzisertib + Pictilisib (first compound 0.08 µM), 0.781; with Tanzisertib + Pictilisib (first compound 0.253 µM), 0.444; with Tanzisertib + Pictilisib (first compound 0.8 µM) it was 0.501; with Tanzisertib + Pictilisib (first compound 2.53 µM) it was 0.478. In addition, the relative viability with Tanzisertib + Pictilisib (first compound 8 µM) was 0.715.
NCI-H2405: the relative viability is 1.1 with Tanzisertib + Foretinib (first compound 0.08 µM); 1.08 with Tanzisertib + Foretinib (first compound 0.253 µM); 1.07 in the assay with Tanzisertib + Foretinib (first compound 0.8 µM); 1.17 with Tanzisertib + Foretinib (first compound 2.53 µM); 1.03 with Tanzisertib + Foretinib (first compound 8 µM); 0.508 in assay [1] (first compound 0.08 µM). For the same cell line, the relative viability in assay [1] (first compound 0.253 µM) came out at 0.502; in assay [1] (first compound 0.8 µM), 0.55; in assay [1] (first compound 2.53 µM), 0.546; in assay [1] (first compound 8 µM), 0.47; in assay [2] (first compound 0.04 µM), 0.594; in assay [2] (first compound 0.1265 µM), 0.742. Further, the relative viability stood at 0.695 in assay [2] (first compound 0.4 µM); 0.542 in assay [2] (first compound 1.265 µM); 0.36 in assay [2] (first compound 4 µM); 0.438 with Tanzisertib + Pictilisib (first compound 0.08 µM); 0.422 with Tanzisertib + Pictilisib (first compound 0.253 µM); 0.49 in the assay with Tanzisertib + Pictilisib (first compound 0.8 µM). The relative viability was 0.421 with Tanzisertib + Pictilisib (first compound 2.53 µM) and 0.323 in the assay with Tanzisertib + Pictilisib (first compound 8 µM).
For NCI-H3122, the relative viability was found to be 1.1 in the assay with Tanzisertib + Foretinib (first compound 0.08 µM); 0.951 in the assay with Tanzisertib + Foretinib (first compound 0.253 µM); 1.03 with Tanzisertib + Foretinib (first compound 0.8 µM); 0.99 with Tanzisertib + Foretinib (first compound 2.53 µM); 1.01 with Tanzisertib + Foretinib (first compound 8 µM); 0.23 in assay [1] (first compound 0.08 µM). For the same cell line, the relative viability was 0.187 in assay [1] (first compound 0.253 µM); 0.213 in assay [1] (first compound 0.8 µM); 0.159 in assay [1] (first compound 2.53 µM); 0.206 in assay [1] (first compound 8 µM); 1.2 in assay [2] (first compound 0.04 µM); 1.14 in assay [2] (first compound 0.1265 µM). In addition, the relative viability stood at 1.06 in assay [2] (first compound 0.4 µM); 1.1 in assay [2] (first compound 4 µM); 0.655 in the assay with Tanzisertib + Pictilisib (first compound 0.08 µM); 0.591 with Tanzisertib + Pictilisib (first compound 0.253 µM); 0.587 with Tanzisertib + Pictilisib (first compound 0.8 µM); 0.572 in the assay with Tanzisertib + Pictilisib (first compound 2.53 µM). Also, the relative viability with Tanzisertib + Pictilisib (first compound 8 µM) worked out at 0.743.
As to PC-3 [JPC-3], the relative viability with Tanzisertib + Foretinib (first compound 0.08 µM) was 1.07; with Tanzisertib + Foretinib (first compound 0.253 µM) it was 1.06; with Tanzisertib + Foretinib (first compound 0.8 µM) it was 1.08; with Tanzisertib + Foretinib (first compound 2.53 µM), 1.06; in the assay with Tanzisertib + Foretinib (first compound 8 µM), 0.889; in assay [1] (first compound 0.08 µM) it was 0.539. For the same cell line, the relative viability in assay [1] (first compound 0.253 µM) was determined as 0.53; in assay [1] (first compound 0.8 µM) it was 0.576; in assay [1] (first compound 2.53 µM) it was 0.521; in assay [1] (first compound 8 µM), 0.571; in assay [2] (first compound 0.04 µM) it was 0.789; in assay [2] (first compound 0.1265 µM), 0.76. Also, the relative viability in assay [2] (first compound 0.4 µM) was determined as 0.783; in assay [2] (first compound 1.265 µM), 0.775; in assay [2] (first compound 4 µM), 0.792; in the assay with Tanzisertib + Pictilisib (first compound 0.08 µM), 0.741; with Tanzisertib + Pictilisib (first compound 0.253 µM), 0.823; in the assay with Tanzisertib + Pictilisib (first compound 0.8 µM), 0.688. The values for the relative viability with Tanzisertib + Pictilisib (first compound 2.53 µM) and in the assay with Tanzisertib + Pictilisib (first compound 8 µM) were 0.673 and 0.577, respectively.
